Assay results: patent US6861417B2, “Pyridin-4-YL or pyrimidin-4-YL substituted pyrazines” (SmithKline Beecham Corporation, priority 1998, dated 2005)

Target: T1, CSBP/p38 (Homo sapiens, UniProt Q16539)
T1 construct: made in house; host or cells: yeast
Assay: CSBP Kinase Assay (transfer of 32P from ATP to EGFR-derived peptide T669)
Assay type: biochemical
Experimental: This assay measures the CSBP-catalyzed transfer of ^32P from [a-^32P]ATP to threonine residue in an epidermal growth factor receptor (EGFR)-derived peptide (T669) with the following sequence: […] (residues 661-681). (See Gallagher et al., “Regulation of Stress Induced Cytokine Production by Pyridinyl Imidazoles: Inhibition of CSPB Kinase”, BioOrganic & Medicinal Chemistry, 1997, 5, 49-64).
Reactions were carried in round bottom 96 well plate (from Corning) in a […]. Reactions contained (in final concentration): 25 mM Hepes, pH7.5; 10 mM MgCl2; 0.17 mM ATP (the Km[ATP] of p38 (see Lee et al., Nature […], n72 pg. 639-746 (December 1994) and Young et al., J. Biol. Chem. 272, n18 pg. 12116-12121 (May 1997)); 2.5 uCi of [g-32P]ATP; 0.2 mM sodium orthovanadate; 1 mM DTT; 0.1% BSA; 10% glycerol; 0.67 mM T669 peptide; and 2-4 nM of yeast-expressed, activated and purified p38. Reactions were initiated by the addition of [gamma-32P]Mg/ATP, and incubated for 25 min at 37 C. Inhibitors (dissolved in DMSO) were incubated with the reaction mixture on ice for 30 minutes prior to adding the 32P-ATP. Final DMSO concentration was 0.16%. […] Filters were washed with 75 mM phosphoric acids, and incorporated 32P was quantified using beta scintillation counter. […]

T1 sequence (Q16539 whole entry): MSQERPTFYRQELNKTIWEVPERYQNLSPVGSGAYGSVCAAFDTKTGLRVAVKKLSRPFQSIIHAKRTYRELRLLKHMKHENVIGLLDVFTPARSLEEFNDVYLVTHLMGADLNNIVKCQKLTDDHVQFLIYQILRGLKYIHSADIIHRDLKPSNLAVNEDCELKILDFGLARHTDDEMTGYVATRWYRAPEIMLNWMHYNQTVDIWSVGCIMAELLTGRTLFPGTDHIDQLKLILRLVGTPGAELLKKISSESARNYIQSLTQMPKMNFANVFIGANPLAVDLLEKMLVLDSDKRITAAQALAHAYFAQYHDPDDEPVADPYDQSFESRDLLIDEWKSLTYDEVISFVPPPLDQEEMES

Row | Compound | inhibitory activity upon retesting (upon retesting, "at this micromolar amount" (IC50 of <50 uM)) | IC50 (CSBP kinase assay, called "this binding assay", read-out: positive inhibitory activity, IC50) [µM]
1 | COc1ccc2cc(-c3nccnc3-c3ccncc3)ccc2c1 [Example 3, 2-(6-Methoxy)napthyl-2-yl-3-(4-pyridyl)pyrazine] | not found active | 
2 | Fc1ccc(-c2nccnc2-c2ccncc2)cc1 [Example 2, 2-(4-Fluorophenyl)-3-(pyridin-4-yl)pyrazine] |  | < 50
